Source: patent publication US10369130B2, “Antibacterial compounds” (AZIENDE CHIMICHE RIUNITE ANGELINI FRANCESCO A.C.R.A.F. …, priority 2014, dated 2019)
Counter-ions that a name gives are not always drawn.

Tests used:
Assay type in all cases: biochemical
Details in all cases: single concentration (200, 100 or 50 μM), in duplicate, versus the positive control (vehicle)
[1] = biological target: T1, DNA gyrase (Escherichia coli, UniProt P0AES4+P0AES6); assay: DNA gyrase supercoiling assay (E. coli)
T1 construct: purchased Inspiralis, UK
T1 sequence (P0AES4 whole entry, one chain of several): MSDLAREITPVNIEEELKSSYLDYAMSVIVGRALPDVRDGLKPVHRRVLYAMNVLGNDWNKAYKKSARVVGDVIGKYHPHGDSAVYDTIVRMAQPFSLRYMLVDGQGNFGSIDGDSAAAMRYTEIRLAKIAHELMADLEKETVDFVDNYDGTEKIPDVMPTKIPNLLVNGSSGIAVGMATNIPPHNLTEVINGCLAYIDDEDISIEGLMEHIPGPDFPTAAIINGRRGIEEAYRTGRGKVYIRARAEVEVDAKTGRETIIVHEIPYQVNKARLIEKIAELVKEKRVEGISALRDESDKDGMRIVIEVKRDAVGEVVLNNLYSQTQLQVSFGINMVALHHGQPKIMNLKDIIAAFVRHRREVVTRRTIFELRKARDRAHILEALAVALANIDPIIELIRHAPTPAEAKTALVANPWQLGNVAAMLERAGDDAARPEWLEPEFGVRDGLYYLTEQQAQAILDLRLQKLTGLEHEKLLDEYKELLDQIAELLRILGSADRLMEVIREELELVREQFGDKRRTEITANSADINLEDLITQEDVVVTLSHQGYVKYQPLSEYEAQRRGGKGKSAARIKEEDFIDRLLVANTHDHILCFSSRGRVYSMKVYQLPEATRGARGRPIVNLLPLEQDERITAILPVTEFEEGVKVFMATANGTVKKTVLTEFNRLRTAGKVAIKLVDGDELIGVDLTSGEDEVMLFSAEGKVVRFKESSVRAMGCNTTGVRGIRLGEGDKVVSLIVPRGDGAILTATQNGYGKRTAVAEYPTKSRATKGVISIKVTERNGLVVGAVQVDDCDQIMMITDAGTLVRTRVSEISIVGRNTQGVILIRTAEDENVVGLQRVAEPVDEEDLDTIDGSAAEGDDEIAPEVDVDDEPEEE

[2] = biological target: T2, Topoisomerase IV (Escherichia coli, UniProt P0AFI2+P20083); assay: Topoisomerase IV decatenation assay (E. coli)
T2 construct: purchased Inspiralis, UK
T2 sequence (P20083 whole entry): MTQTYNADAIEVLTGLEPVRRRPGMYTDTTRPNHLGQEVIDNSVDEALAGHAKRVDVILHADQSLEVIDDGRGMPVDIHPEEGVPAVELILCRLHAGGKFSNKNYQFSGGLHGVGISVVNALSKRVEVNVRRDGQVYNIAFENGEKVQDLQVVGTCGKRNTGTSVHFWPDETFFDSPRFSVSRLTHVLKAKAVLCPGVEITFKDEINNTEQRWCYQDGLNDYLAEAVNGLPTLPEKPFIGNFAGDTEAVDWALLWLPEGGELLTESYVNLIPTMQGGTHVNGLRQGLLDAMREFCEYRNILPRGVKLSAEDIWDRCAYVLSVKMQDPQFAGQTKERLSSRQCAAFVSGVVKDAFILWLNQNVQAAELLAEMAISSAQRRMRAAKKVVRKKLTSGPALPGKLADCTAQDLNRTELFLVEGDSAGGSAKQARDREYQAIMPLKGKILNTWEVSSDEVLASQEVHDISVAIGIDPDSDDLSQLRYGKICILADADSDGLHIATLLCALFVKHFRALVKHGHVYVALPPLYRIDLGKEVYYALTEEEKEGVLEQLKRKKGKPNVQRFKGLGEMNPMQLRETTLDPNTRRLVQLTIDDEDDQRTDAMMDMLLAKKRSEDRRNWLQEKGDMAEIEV
T2 sequence (P0AFI2 whole entry): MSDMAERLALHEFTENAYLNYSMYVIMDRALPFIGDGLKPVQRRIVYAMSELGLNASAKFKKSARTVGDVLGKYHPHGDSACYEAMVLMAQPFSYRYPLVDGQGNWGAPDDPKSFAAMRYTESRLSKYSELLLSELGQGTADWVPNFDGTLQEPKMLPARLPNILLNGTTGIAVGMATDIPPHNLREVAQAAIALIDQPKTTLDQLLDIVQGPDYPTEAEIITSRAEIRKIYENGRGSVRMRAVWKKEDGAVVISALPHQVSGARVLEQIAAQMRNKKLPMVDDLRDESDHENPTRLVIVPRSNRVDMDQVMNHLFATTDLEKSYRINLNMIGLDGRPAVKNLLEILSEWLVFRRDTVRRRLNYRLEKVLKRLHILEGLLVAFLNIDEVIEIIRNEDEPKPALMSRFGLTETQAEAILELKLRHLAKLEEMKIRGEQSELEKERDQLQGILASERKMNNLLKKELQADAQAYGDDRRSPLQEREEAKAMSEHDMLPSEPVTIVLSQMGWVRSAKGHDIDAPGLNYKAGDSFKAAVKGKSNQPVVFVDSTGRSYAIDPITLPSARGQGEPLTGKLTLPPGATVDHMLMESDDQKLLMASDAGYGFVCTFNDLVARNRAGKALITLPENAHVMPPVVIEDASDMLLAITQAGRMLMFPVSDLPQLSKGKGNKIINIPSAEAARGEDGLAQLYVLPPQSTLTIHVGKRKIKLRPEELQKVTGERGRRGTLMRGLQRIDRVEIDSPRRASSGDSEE

[3] = biological target: T3, DNA gyrase (Staphylococcus aureus, UniProt P0A0K8+P20831); assay: DNA gyrase supercoiling assay (S. aureus)
T3 construct: purchased Inspiralis, UK

[4] = biological target: T4, Topoisomerase IV (Staphylococcus aureus, UniProt P0C1S7+P0C1U9); assay: Topoisomerase IV decatenation assay (S. aureus)
T4 construct: purchased Inspiralis, UK
T4 sequence (P0C1S7 whole entry): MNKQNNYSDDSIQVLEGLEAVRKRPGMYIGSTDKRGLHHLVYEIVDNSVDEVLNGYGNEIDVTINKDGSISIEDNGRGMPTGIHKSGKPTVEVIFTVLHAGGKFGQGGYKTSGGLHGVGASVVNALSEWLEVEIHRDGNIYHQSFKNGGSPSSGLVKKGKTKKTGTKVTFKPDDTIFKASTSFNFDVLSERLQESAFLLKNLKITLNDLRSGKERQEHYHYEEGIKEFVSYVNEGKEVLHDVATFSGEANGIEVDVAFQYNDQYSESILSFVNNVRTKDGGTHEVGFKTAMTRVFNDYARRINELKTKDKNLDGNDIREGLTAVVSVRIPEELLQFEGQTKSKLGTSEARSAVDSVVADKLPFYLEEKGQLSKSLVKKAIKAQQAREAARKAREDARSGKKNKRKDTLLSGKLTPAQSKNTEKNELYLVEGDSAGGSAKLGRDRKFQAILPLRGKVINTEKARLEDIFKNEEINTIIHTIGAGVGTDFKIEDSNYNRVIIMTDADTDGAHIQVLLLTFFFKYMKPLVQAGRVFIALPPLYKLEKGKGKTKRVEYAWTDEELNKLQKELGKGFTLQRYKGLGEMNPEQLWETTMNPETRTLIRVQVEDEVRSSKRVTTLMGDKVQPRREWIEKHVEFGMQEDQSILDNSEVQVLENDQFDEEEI
T4 sequence (P0C1U9 whole entry): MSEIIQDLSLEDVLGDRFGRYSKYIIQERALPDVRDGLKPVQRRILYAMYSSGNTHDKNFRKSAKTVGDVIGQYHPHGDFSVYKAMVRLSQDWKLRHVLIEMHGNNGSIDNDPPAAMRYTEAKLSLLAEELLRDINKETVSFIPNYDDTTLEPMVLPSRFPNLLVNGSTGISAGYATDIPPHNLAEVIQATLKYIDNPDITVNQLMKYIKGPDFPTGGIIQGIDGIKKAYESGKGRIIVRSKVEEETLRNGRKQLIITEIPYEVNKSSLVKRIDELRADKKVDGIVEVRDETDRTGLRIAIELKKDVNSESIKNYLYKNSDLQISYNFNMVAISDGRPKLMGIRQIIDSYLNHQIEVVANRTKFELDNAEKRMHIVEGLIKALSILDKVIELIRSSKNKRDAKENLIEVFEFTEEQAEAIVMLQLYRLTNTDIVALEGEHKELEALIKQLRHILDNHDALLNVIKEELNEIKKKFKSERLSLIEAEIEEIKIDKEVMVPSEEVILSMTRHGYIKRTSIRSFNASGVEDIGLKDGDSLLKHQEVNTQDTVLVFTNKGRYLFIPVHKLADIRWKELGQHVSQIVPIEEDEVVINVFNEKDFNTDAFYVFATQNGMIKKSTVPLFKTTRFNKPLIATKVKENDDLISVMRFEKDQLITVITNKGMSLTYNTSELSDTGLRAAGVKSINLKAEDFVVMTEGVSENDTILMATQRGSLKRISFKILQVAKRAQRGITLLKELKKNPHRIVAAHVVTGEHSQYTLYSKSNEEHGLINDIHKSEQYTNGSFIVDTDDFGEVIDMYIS

Structure (SMILES)	% inhibition DNA gyrase [1]	% inhibition Topo IV [2]	% inhibition DNA gyrase [3]	% inhibition Topo IV [4]
O=c1cc(NC[C@@H](O)[C@@H](O)C2CCN(c3nccc4ccc(F)cc34)CC2)c2ccccc2o1 (racemic) [Compound 129, (2R,3S) and (2S,3R) 4-({3-[1-(7-fluoroisoquinolin-1-yl)piperidin-4-yl]-2,3-dihydroxypropyl}amino)-2H-chromen-2-one hydrochloride]	69%	n/a (n/a = not active)	n/a (n/a = not active)	n/a (n/a = not active)
O=c1cc(OCCCN2CCN(c3nccc4ccccc34)CC2)c2ccccc2o1 [Compound 70, 4-{3-[4-(isoquinolin-1-yl)piperazin-1-yl]propoxy}-2H-chromen-2-one hydrochloride]	86%	n/a (n/a = not active)	75%	n/a (n/a = not active)
COc1ccc2c(NCCCN3CCN(c4nccc5ccccc45)CC3)cc(=O)oc2c1 [Compound 85, 4-({3-[4-(isoquinolin-1-yl)piperazin-1-yl]propyl}amino)-7-methoxy-2H-chromen-2-one hydrochloride]	78%	n/a (n/a = not active)	86%	n/a (n/a = not active)
O=C(CN1CCC(Nc2cc(=O)oc3ccccc23)CC1)NCc1nccc2ccccc12 [Compound 118, N-(isoquinolin-1-ylmethyl)-2-{4-[(2-oxo-2H-chromen-4-yl)amino]piperidin-1-yl}acetamide]	78%	n/a (n/a = not active)	n/a (n/a = not active)	n/a (n/a = not active)
O=C(NCCCN1CCN(c2nccc3ccccc23)CC1)c1cc(F)ccc1F [Compound 39, 2,5-difluoro-N-{3-[4-(isoquinolin-1-yl)piperazin-1-yl]propyl}benzamide hydrochloride]	50%	n/a (n/a = not active)	74%	n/a (n/a = not active)
O=C(NCCN1CCN(c2nccc3ccccc23)CC1)c1cc(=O)oc2ccccc12 [Compound 75, N-{2-[4-(isoquinolin-1-yl)piperazin-1-yl]ethyl}-2-oxo-2H-chromene-4-carboxamide hydrochloride]	69%	n/a (n/a = not active)	61%	n/a (n/a = not active)
O=C(NCCCN1CCN(c2nccc3cc(F)ccc23)CC1)c1cccnc1 [Compound 45, N-{3-[4-(6-fluoroisoquinolin-1-yl)piperazin-1-yl]propyl}pyridine-3-carboxamide hydrochloride]	n/a (n/a = not active)	n/a (n/a = not active)	81%	n/a (n/a = not active)
O=C1CN(c2nccc3ccccc23)CCN1CCCNc1cc(=O)oc2ccccc12 [Compound 71, 4-(isoquinolin-1-yl)-1-{3-[(2-oxo-2H-chromen-4-yl)amino]propyl}piperazin-2-one hydrochloride]	56%	n/a (n/a = not active)	n/a (n/a = not active)	n/a (n/a = not active)
O=C(NCCCN1CCN(c2nccc3ncccc23)CC1)c1cccnc1 [Compound 43, N-{3-[4-(1,6-naphthyridin-5-yl)piperazin-1-yl]propyl}pyridine-3-carboxamide hydrochloride]	n/a (n/a = not active)	n/a (n/a = not active)	100%	n/a (n/a = not active)
O=C(NCCCN1CCN(c2nccc3ccccc23)CC1)c1cccnc1 [Compound 2, N-{3-[4-(isoquinolin-1-yl)piperazin-1-yl]propyl}pyridine-3-carboxamide hydrochloride]	n/a (n/a = not active)	65%	n/a (n/a = not active)	n/a (n/a = not active)
O=C(NCCCN1CCN(c2nccc3ccccc23)CC1)c1cc2ccoc2cn1 [Compound 42, N-{3-[4-(isoquinolin-1-yl)piperazin-1-yl]propyl}furo[2,3-c]pyridine-5-carboxamide hydrochloride]	n/a (n/a = not active)	n/a (n/a = not active)	84%	n/a (n/a = not active)
